Measured values as given in patent publication US20060258717A1, “ORGANIC COMPOUNDS” (priority 2004, published 2006).
Like-named read-outs stand apart in the source and are kept apart here.

Test system: human umbilical vein endothelial cells (HUVECs)
Conditions: for number of tubes (capillary networking) versus control: 24 hours, HUVECs on growth factor-reduced Matrigel, 8 wells, five random fields per well
Protocol: Various concentrations of compound A (0.1, 1, and 10 μM) are tested to assess the quality of effect of this compound on capillary networking (tube formation) in cultured human umbilical vein endothelial cells (HUVECs) seeded on growth factor-reduced Matrigel. The intensity of capillary networking is evaluated at 24 hours using a phase-contrast microscope. Images are captured and analySYS 3.2 software is used to count the number of tubes in five random fields of each well (8 wells altogether). The effect of the compound is compared to untreated cells grown in cell culture medium (control).

SMILES: Cc1nccn1Cc1ccccn1 [Compound A, [2-(2-methylimidazol-1-yl)methyl]pyridine]
- number of tubes (capillary networking) versus control (1 μM compound): significantly decreases the number of tubes
- number of tubes (capillary networking) versus control (10 μM compound): significantly decreases the number of tubes
- cell toxicity (ToxiLight, ATP release from damaged cells) (additional study, concentrations not given): not related to cell toxicity
